Reference: patent publication US11401278B2, “Macrocyclic indole derivatives” (The Broad Institute, Inc., priority 2017, dated 2022)
Where “and” joins values, the source holds several entries; their conditions need not be identical. Identical values can stand only once. Counter-ions that a name gives are not always drawn. Like-named read-outs stand apart in the source and are kept apart here.

Tests used:
BCL-XL = BCL-XL (Homo sapiens (Human), UniProt Q07817); assay: Protein-protein interaction assay BCL-XL/Bad BH3 peptide (BCL-XL assay, TR-FRET); assay type: binding; conditions: His-BCL-XL / Bad BH3 peptide, median
In short: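 His-tagged human BCL-XL (aa 1-212, 1 nM final) was preincubated 10 min at 22 °C with compound (11 concentrations, 0.1 nM–20 μM), then biotinylated Bad BH3 peptide (1 nM) and TR-FRET reagents were added. Incubation: 1 h at 22 °C, then overnight at 4 °C, pH 7 Tris buffer. IC50 from 4-parameter fit of 665/620 ratio.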

HMC-1-8 = assay: Antiproliferation assay (Assay 7), HMC-1-8; assay type: cell-based; conditions: CellTiter-Glo, several values per example, read-out: Antiproli HMC-1-8 [M] IC50
In short: (§1)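 Plate cells in treatment and day 0 reference plates; read day 0 plate with CellTiter-Glo after 10 min; incubate treated plates 72 h at 37° C; read them identically.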

MV-4-11 = assay: Antiproliferation assay (Assay 7), MV-4-11; assay type: cell-based; conditions: CellTiter-Glo, 72 hours, several values per example, listed as 08, read-out: Antiproli MV-4-11 [M] IC50
In short: as §1

Sequence of BCL-XL (Q07817 other isoform, or with tags, fused parts or gaps): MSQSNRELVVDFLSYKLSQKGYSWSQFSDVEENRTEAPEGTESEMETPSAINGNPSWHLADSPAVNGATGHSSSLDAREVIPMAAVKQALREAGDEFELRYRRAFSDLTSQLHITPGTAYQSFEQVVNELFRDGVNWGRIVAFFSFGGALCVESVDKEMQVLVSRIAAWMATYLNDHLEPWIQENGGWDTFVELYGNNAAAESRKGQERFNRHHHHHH

Compound | IC50 (BCL-XL) [µM] | IC50 (MV-4-11) [M] | IC50 (HMC-1-8; 72 hours) | IC50 (HMC-1-8; 72 h) [M]
Cc1c2c(nn1C)CN(C1CC1)S(=O)(=O)CCCn1c(C(=O)O)c(CCCOc3cccc4cc(F)ccc34)c3ccc(Cl)c-2c31 (single isomer, unassigned; enantiomer 2) [Example 43, (+)-4-chloro-14-cyclopropyl-7-{3-[(6-fluoro-1-naphthyl)oxy]propyl}-2,3-dimethyl-11,12,14,15-tetrahydro-2H,10H-pyrazolo[3′,4′:4,5][1,2,8]thiadiazacycloundecino[6,7,8-hi]indole-8-carboxylic acid 13,13-dioxide N-diethylamine salt (Enantiomer 2)] | > 20 | – | > 3.3e-05 M | –
Cc1c2c(nn1C)C(CCN1CCOCC1)N(C)S(=O)(=O)CCCn1c(C(=O)O)c(CCCOc3cccc4ccccc34)c3cccc-2c31 (single isomer, unassigned; enantiomer 2) [Example 46, 2,3,14-trimethyl-15-[2-(morpholin-4-yl)ethyl]-7-{3-[(naphthalen-1-yl)oxy]propyl}-13,13-dioxo-10,11,12,13,14,15-hexahydro-2H-13lambda^6-pyrazolo[3′,4′:4,5][1,2,8]thiadiazacycloundecino[6,7,8-hi]indole-8-carboxylic acid N-ethylethanamine Salt (Enantiomer 2)] | > 20 | – | 9.4e-06 M and 1.2e-05 M | –
Cc1c2c(nn1C)CN(C)S(=O)(=O)CCCn1c(C(=O)O)c(CCCOc3cccc4cc(F)ccc34)c3ccc(F)c-2c31 (single isomer, unassigned; enantiomer 1) [Example 38, (−)-4-fluoro-7-{3-[(6-fluoronaphthalen-1-yl)oxy]propyl}-2,3,14-trimethyl-13,13-dioxo-10,11,12,13,14,15-hexahydro-2H-13lambda^6-pyrazolo[3′,4′:4,5][1,2,8]thiadiazacycloundecino-[6,7,8-hi]indole-8-carboxylic acid (Enantiomer 1)] | > 20 | – | 2.7e-05 M | –
Cc1c2c(nn1C)CN(C1CC1)S(=O)(=O)CCCn1c(C(=O)O)c(CCCOc3cccc4cc(F)ccc34)c3ccc(Cl)c-2c31 (single isomer, unassigned; enantiomer 1) [Example 42, (−)-4-chloro-14-cyclopropyl-7-{3-[(6-fluoro-1-naphthyl)oxy]propyl}-2,3-dimethyl-11,12,14,15-tetrahydro-2H,10H-pyrazolo[3′,4′:4,5][1,2,8]thiadiazacycloundecino[6,7,8-hi]indole-8-carboxylic acid 13,13-dioxide N-diethylamine salt (Enantiomer 1)] | 18 | – | 5.9e-06 M and 3.8e-06 M | –
CCc1c2c(nn1C)CN(C)S(=O)(=O)CCCn1c(C(=O)O)c(CCCOc3cccc4cc(F)ccc34)c3ccc(F)c-2c31 (single isomer, unassigned; enantiomer 1) [Example 8, (+)-3-Ethyl-4-fluoro-7-{3-[(6-fluoronaphthalen-1-yl)oxy]propyl}-2,14-dimethyl-13,13-dioxo-10,11,12,13,14,15-hexahydro-2H-13λ^6-pyrazolo[3′,4′:4,5][1,2,8]thiadiazacycloundecino-[6,7,8-hi]indole-8-carboxylic acid (Enantiomer 1)] | > 20 | 1.18e-06 | – | 2.2e-06

Now from value to molecule, other results behind:

IC50 (BCL-XL) [µM] | IC50 (MV-4-11) [M] | Compound | IC50 (HMC-1-8; 72 hours) | IC50 (HMC-1-8; 72 h) [M]
> 20 | – | CCc1c2c(nn1C)C(CCC1CCOCC1)N(C)S(=O)(=O)CCCn1c(C(=O)O)c(CCCOc3cccc4cc(F)ccc34)c3ccc(Cl)c-2c31 (single isomer, unassigned; enantiomer 4) [Example 64, (−)-4-chloro-3-ethyl-7-{3-[(6-fluoronaphthalen-1-yl)oxy]propyl}-2,14-dimethyl-15-[2-(oxan-4-yl)ethyl]-13,13-dioxo-10,11,12,13,14,15-hexahydro-2H-13lambda^6-pyrazolo[3′,4′:4,5][1,2,8]thiadiazacycloundecino[6,7,8-hi]indole-8-carboxylic acid (Enantiomer 4)] | 1.1e-05 M | –
> 20 | – | COc1ccc(CN2Cc3nn(C)c(C)c3-c3c(Cl)ccc4c(CCCOc5cccc6cc(F)ccc56)c(C(=O)O)n(c34)CCCS2(=O)=O)c(OC)c1 (racemic) [Example 49, (rac)-4-chloro-14-(2,4-dimethoxybenzyl)-7-{3-[(6-fluoro-1-naphthyl)oxy]propyl}-2,3-dimethyl-11,12,14,15-tetrahydro-2H,10H-pyrazolo[3′,4′:4,5][1,2,8]thiadiazacycloundecino[6,7,8-hi]indole-8-carboxylic acid 13,13-dioxide] | 5.8e-06 M | 7.8e-06
> 20 | – | CCc1c2c(nn1C)CN(C)S(=O)(=O)CCCn1c(C(=O)O)c(CCCOc3cccc4cc(F)ccc34)c3ccc(Cl)c-2c31 (single isomer, unassigned; enantiomer 1) [Example 36, (+)-4-chloro-3-ethyl-7-{3-[(6-fluoronaphthalen-1-yl)oxy]propyl}-2,14-dimethyl-13,13-dioxo-10,11,12,13,14,15-hexahydro-2H-13lambda^6-pyrazolo[3′,4′:4,5][1,2,8]thiadiazacycloundecino-[6,7,8-hi]indole-8-carboxylic acid (Enantiomer 1)] | 1.7e-06 M and 1.9e-06 M | –
> 20 | – | Cc1c2c(nn1C)C(N1CCOCC1)CCN(C)S(=O)(=O)CCCn1c(C(=O)O)c(CCCOc3cccc4cc(F)ccc34)c3ccc(Cl)c-2c31 (racemic) [Example 47, (rac)-15-chloro-1-(3-((6-fluoronaphthalen-1-yl)oxy)propyl)-8,13,14-trimethyl-11-(rac)-morpholino-5,6,9,10,11,13-hexahydro-4H,8H-pyrazolo[3′,4′:6,7][1]thia[2,10]diazacyclotridecino[8,9,10-hi]indole-2-carboxylic acid 7,7-dioxide (Mixture of Stereoisomers)] | 1.2e-05 M | 8e-06
16 | – | Cc1c2c(nn1C)CNS(=O)(=O)CCCn1c(C(=O)O)c(CCCOc3cccc4cc(F)ccc34)c3ccc(Cl)c-2c31 (single isomer, unassigned; enantiomer 2) [Example 52, 4-chloro-7-{3-[(6-fluoronaphthalen-1-yl)oxy]propyl}-2,3-dimethyl-13,13-dioxo-10,11,12,13,14,15-hexahydro-2H-13lambda^6-pyrazolo[3′,4′:4,5][1,2,8]thiadiazacycloundecino[6,7,8-hi]indole-8-carboxylic acid (Enantiomer 2)] | > 3.3e-05 M | –
> 20 | – | Cc1c2c(nn1C)C(CCN1CCOCC1)N(C)S(=O)(=O)CCCn1c(C(=O)O)c(CCCOc3cccc4cc(F)ccc34)c3ccc(Cl)c-2c31 (racemic) [Example 48, (rac)-4-chloro-7-{3-[(6-fluoro-1-naphthyl)oxy]propyl}-2,3,14-trimethyl-15-(rac)-[2-(morpholin-4-yl)ethyl]-11,12,14,15-tetrahydro-2H,10H-pyrazolo[3′,4′:4,5][1,2,8]thiadiazacycloundecino[6,7,8-hi]indole-8-carboxylic acid 13,13-dioxide (Mixture of Stereoisomers)] | 9.8e-07 M and 9.3e-07 M | –
